{"source": "paper PMC9919437", "about": "(Molecules, 2023)", "molecules": {"B1": {"name": "N-terminal domain of the lectin BC2L-C from Burkholderia cenocepacia (domain or fragment)", "chain": "MPLLSASIVSAPVVTSETYVDIPGLYLDVAKAGIRDGKLQVILNVPTPYATGNNFPGIYFAIATNQGVVADGCFTYSSKVPESTGRMPFTLVATIDVGSGVTFVKGQWKSVRGSAMHIDSYASLSAIWGTAA", "notes": "also called BC2L-C-Nt; BC2L-C N-terminal domain; not shown: expression tag, N-terminal, cleaved"}}, "key": {"[1]": {"experiment": "Water solubility", "format": "physicochemical", "details": "fully soluble at least up to"}, "[2]": {"target": "BC2L-C-Nt", "design": "method as in PMID 36174276", "details": "SPR, BC2L-C-Nt immobilized on CM5 chip; said not to correlate with ITC; read-out: apparent Kd; cited from earlier work"}, "[3]": {"design": "method as in PMID 36174276", "details": "cited from earlier work"}, "[4]": {"target": "the molecule itself", "experiment": "crystal structure; hexagonal crystal form (P6_3), one protomer in the asymmetric unit, trimer by the 3-fold crystallographic symmetry; cocrystals with H-type 1 oligosaccharide soaked with 3 mM compound 3 in 2.47 M sodium malonate pH 7.0 for 48 h at 19 °C"}}, "note": "“Also recorded” adds a separate entry of the source.", "data": [{"molecule": "NCc1cccc(-c2ccc(C(=O)NC3OC(CO)C(O)C(O)C3O)o2)c1", "note": "(stereo not drawn) [compound 4]", "values": [{"measurement": "solubility", "setting": "[1]", "result": "≥ 2000", "unit": "µM"}]}, {"molecule": "C[C@@H]1O[C@H](NC(=O)c2ccco2)[C@@H](O)[C@H](O)[C@@H]1O", "note": "[compound 17, Furan-2-carboxamido-β-L-fucopyranose]", "values": [{"measurement": "solubility", "setting": "[1]", "result": "≥ 2000", "unit": "µM"}]}, {"molecule": "C[C@@H]1O[C@H](NC(=O)c2ccc(-c3cccc(N)c3)o2)[C@@H](O)[C@H](O)[C@@H]1O", "note": "[compound 2]", "values": [{"measurement": "Kd", "setting": "[2]", "result": 2.4, "unit": "mM"}, {"measurement": "water solubility (in words)", "setting": "[3]", "result": "very low water solubility; also recorded: water-insoluble"}]}, {"molecule": "C[C@@H]1O[C@H](NC(=O)c2ccc(-c3cccc(CN)c3)o2)[C@@H](O)[C@H](O)[C@@H]1O", "note": "[compound 3]", "values": [{"measurement": "solubility", "setting": "[1]", "result": "≥ 2000", "unit": "µM"}]}, {"molecule": "B1", "values": [{"measurement": "stoichiometry N", "setting": "[4]", "result": 3}]}]}
